Results as given in patent publication US9005575B2, “Arg-Gly-Asp-conjugated alpha-melanocyte stimulating hormone hybrid peptide for use in diagnosing and treating melanoma, including metastatic melanoma and methods related to same” (STC.UNM, priority 2009, dated 2015).
Positions of bridges follow the written chain, without caps; N, C: chain ends. Non-standard residues stand in square brackets, D forms with d. Residues, ends and D or L forms follow the SMILES beside them.

Assays:
B16/F1 melanoma [1] = test: Biodistribution in B16/F1 melanoma-bearing C57 mice; assay type: in vivo; conditions: for Tumor uptake blocked by NDP-MSH: 6.1 nmol of NDP-MSH; for Tumor uptake decreased (blocked) by RGD co-injection: 3.5 μg (6.1 nmol) of RGD; for Tumor uptake with NDP-MSH co-injection as % of the tumor uptake without: 10 μg (6.1 nmol) NDP-MSH, 2 h after dose administration
Description: All the animal studies were conducted in compliance with Institutional Animal Care and Use Committee approval. The pharmacokinetics of ^99mTc-RGD-Lys-(Arg^11)CCMSH was determined in B16/F1 melanoma-bearing C57 female mice (Harlan, Indianapolis, Ind.). C57 mice were subcutaneously inoculated on the right flank with 1×10^6 B16/F1 cells. The weight of tumors reached approximately 0.2 g 10 days post cell inoculation. Each melanoma-bearing mouse was injected with 0.037 MBq of ^99mTc-RGD-Lys-(Arg^11)CCMSH via the tail vein. Groups of 5 mice were sacrificed at 0.5, 2, 4 and 24 h post-injection, and tumors and organs of interest were harvested, weighed and counted. Blood values were taken as 6.5% of the whole-body weight. The MC1 receptor specificity of the tumor uptake was determined at 2 h post-injection by co-injecting ^99mTc-RGD-Lys-(Arg^11)CCMSH with 10 μg (6.1 nmol) of unlabeled NDP-MSH, a linear α-MSH peptide analogue with picomolar affinity for the MC1 receptors present on murine melanoma cells. The co-injection of 3.5 μg (6.1 nmol) of RGD peptide was performed to determine the αvβ3 integrin specificity of the tumor uptake 2 h post-injection. Statistical analysis was performed using the Student's t-test for unpaired data.
All the animal studies were conducted in compliance with Institutional Animal Care and Use Committee approval. The pharmacokinetics of ^99mTc-RGD-Arg-(Arg^11)CCMSH was determined in B16/F1 melanoma-bearing C57 female mice (Harlan, Indianapolis, Ind.). C57 mice were subcutaneously inoculated on the right flank with 1×10^6 B16/F1 cells. The weight of tumors reached approximately 0.2 g 10 days post cell inoculation. Each melanoma-bearing mouse was injected with 0.037 MBq of ^99mTc-RGD-Arg-(Arg^11)CCMSH via the tail vein. Groups of 5 mice were sacrificed at 0.5, 2, 4 and 24 h post-injection, and tumors and organs of interest were harvested, weighed and counted. Blood values were taken as 6.5% of the whole-body weight. The MC1 receptor specificity of the tumor uptake was determined at 2 h post-injection by co-injecting ^99mTc-RGD-Arg-(Arg^11)CCMSH with 10 μg (6.1 nmol) of unlabeled NDP-MSH. The co-injection of 3.5 μg (6.1 nmol) of RGD peptide was performed to determine the αvβ3 integrin specificity of the tumor uptake at 2 h post-injection.

B16/F1 melanoma [2] = test: SPECT/CT imaging of melanoma; assay type: in vivo, C57 mouse; conditions: 2 h post-injection
Description: (§1) A B16/F1 melanoma-bearing C57 mouse was injected with 10.4 MBq of ^99mTc-RGD-Lys-(Arg^11)CCMSH via the tail vein. The mouse was anesthetized with 1.5% isoflurane for small animal SPECT/CT (Nano-SPECT/CT®, Bioscan) imaging 2 h post-injection. The 9-min CT imaging was immediately followed by the SPECT imaging of whole-body. The SPECT scans of 24 projections were acquired and total acquisition time was approximately 45 min. After the SPECT imaging, the mouse was euthanized with CO2 inhalation. Reconstructed data from SPECT and CT were visualized and co-registered using InVivoScope (Bioscan, Washington D.C.).
as §1, with “6.1” for “10.4”, “^99mTc-RGD-Arg-(Arg^11)CCMSH” for “^99mTc-RGD-Lys-(Arg^11)CCMSH”, “9-min.” for “9-min”

[3] = Effect of L-lysine co-injection on renal and tumor uptakes; assay type: in vivo, C57 mice; conditions: 15 mg of L-lysine, 2 h post-injection; for tissue uptake at 2 h: C57, mouse, kidneys, with L-lysine, 15 mg co-injected, total radioactivity
Description: The effects of L-lysine co-injection on the renal uptakes of ^99mTc-RGD-Arg-(Arg^11)CCMSH and ^99mTc-RGD-Lys-(Arg^11)CCMSH was examined in B16/F1 melanoma-bearing C57 as well. Two groups of 5 mice were injected with an aqueous mixture of 0.037 MBq of ^99mTc-RGD-Arg-(Arg^11)CCMSH and 15 mg of L-lysine or an aqueous mixture of 0.037 MBq of ^99mTc-RGD-Lys-(Arg^11)CCMSH and 15 mg of L-lysine, respectively. The mice were sacrificed at 2 h post-injection, and tumors and kidneys were harvested, weighed and counted.

| SMILES | Tumor uptake blocked by NDP-MSH (B16/F1 melanoma [1]; 2 h post-injection) [%] | Tumor uptake decreased (blocked) by RGD co-injection (B16/F1 melanoma [1]; 2 h post-injection) [%] | Tumor uptake with NDP-MSH co-injection as % of the tumor uptake without (B16/F1 melanoma [1]) [%] | Tumor uptake value as % of the tumor uptake value 2 h post-injection (B16/F1 melanoma [1]; 4 h post-injection) [%] | Visualization of flank melanoma tumors by SPECT/CT (B16/F1 melanoma [2]) | Effect of L-lysine co-injection on the tumor uptake [3] | Reduction of renal uptake by L-lysine co-injection [3] [%] | tissue uptake at 2 h [3] [%ID/g] | also measured |
| --- | --- | --- | --- | --- | --- | --- | --- | --- | --- |
| CC(C)[C@H](NC(=O)[C@@H]1CCCN1C(=O)[C@H](CCCNC(=N)N)NC(=O)[C@H](CS)NC(=O)[C@H](Cc1c[nH]c2ccccc12)NC(=O)[C@H](CCCNC(=N)N)NC(=O)[C@@H](Cc1ccccc1)NC(=O)[C@H](Cc1c[nH]cn1)NC(=O)[C@H](CCC(=O)O)NC(=O)[C@H](CS)NC(=O)[C@H](CS)NC(=O)[C@H](CCCNC(=N)N)NC(=O)[C@@H]1CC(=O)N[C@@H](CCCNC(=N)N)C(=O)NCC(=O)N[C@@H](CC(=O)O)C(=O)N[C@H](Cc2ccc(O)cc2)C(=O)N1)C(N)=O [^99mTc-RGD-Arg-(Arg^11)CCMSH, metal not drawn] (RGD[dY]DRCCEH[dF]RWCRPV-NH2; lactam N-5) | 90.9 | 21.2 | 9.15 | 75 | visualized clearly | without affecting | 27.7 | 31.1 ± 6.42 | Renal uptake values as % of those of ^99mTc-RGD-Lys-(Arg^11)CCMSH (B16/F1 melanoma [1]; 0.5, 2, 4 and 24 h post-injection): 40.14-64.08%; Renal uptake value as % of that of ^99mTc-RGD-Lys-(Arg^11)CCMSH (B16/F1 melanoma [1]; 0.5 h post-injection): 53.65%; Tumor uptake value, times that of ^99mTc-RGD-Lys-(Arg^11)CCMSH (B16/F1 melanoma [1]; 0.5 h post-injection): 1.27 times; Renal uptake value as % of that of ^99mTc-RGD-Lys-(Arg^11)CCMSH (B16/F1 melanoma [1]; 2 h post-injection): 64.08%; Tumor uptake value, times that of ^99mTc-RGD-Lys-(Arg^11)CCMSH (B16/F1 melanoma [1]; 2 h post-injection): 1.44 times; Renal uptake value as % of that of ^99mTc-RGD-Lys-(Arg^11)CCMSH (B16/F1 melanoma [1]; 4 h post-injection): 52.89%; Tumor uptake value, times that of ^99mTc-RGD-Lys-(Arg^11)CCMSH (B16/F1 melanoma [1]; 4 h post-injection): 1.28 times; Renal uptake value as % of that of ^99mTc-RGD-Lys-(Arg^11)CCMSH (B16/F1 melanoma [1]; 24 h post-injection): 40.14%; Tumor/kidney uptake ratio, times that of ^99mTc-RGD-Lys-(Arg^11)CCMSH (B16/F1 melanoma [1]; 24 h post-injection): 2.21 times |
| CC(C)[C@H](NC(=O)[C@@H]1CCCN1C(=O)[C@H](CCCNC(=N)N)NC(=O)[C@H](CS)NC(=O)[C@H](Cc1c[nH]c2ccccc12)NC(=O)[C@H](CCCNC(=N)N)NC(=O)[C@@H](Cc1ccccc1)NC(=O)[C@H](Cc1c[nH]cn1)NC(=O)[C@H](CCC(=O)O)NC(=O)[C@H](CS)NC(=O)[C@H](CS)NC(=O)[C@H](CCCCN)NC(=O)[C@@H]1CC(=O)N[C@@H](CCCNC(=N)N)C(=O)NCC(=O)N[C@@H](CC(=O)O)C(=O)N[C@H](Cc2ccc(O)cc2)C(=O)N1)C(N)=O [^99mTc-RGD-Lys-(Arg^11)CCMSH, metal not drawn] (RGD[dY]DKCCEH[dF]RWCRPV-NH2; lactam N-5) | 87.8 | 29.2 | 12.2 | 85 | visualized clearly | without affecting | 52.1 | 32.2 ± 5.98 | Kidneys, Percentage Injected Dose/gram (B16/F1 melanoma [1]; 4 h post-injection): 69.29 ± 14.34 % ID/g; Renal uptake value, times that of ^99mTc-(Arg^11)CCMSH (B16/F1 melanoma [1]; 4 h post-injection): 12.5 times; Tumor uptake value, times that of ^99mTc-(Arg^11)CCMSH (B16/F1 melanoma [1]; 4 h post-injection): 1.1 times; Tumor uptake value as % of the tumor uptake value 2 h post-injection (B16/F1 melanoma [1]; 24 h post-injection): 51%; Tumor uptake value, times that of ^99mTc-(Arg^11)CCMSH (B16/F1 melanoma [1]; 24 h post-injection): 2.3 times; Renal uptake value, times that of ^188Re-dLys-(Arg^11)CCMSH (B16/F1 melanoma [1]; mouse, in vivo): 1.2 times |
